The source of these data is patent US10988477B2 (Merck Patent GmbH, priority 2018, dated 2021).

One assay has as its target GCN2 kinase (Homo sapiens, UniProt Q9P2K8). Kind of assay: GCN2 enzyme inhibition assay (Transcreener ADP2 fluorescence polarization). The format is biochemical. The conditions noted are these: 280 μM ATP. The method in brief: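 Human GCN2 (4 nM) preincubated 10 min with compound (0–8 μM) and 200 μM (RS)7 peptide in Tris-HCl pH 7.5, NaCl, MgCl2, DTT. Reaction started with 280 μM ATP, run 1 h at 25 °C. ADP detected by Transcreener fluorescence polarization. IC50 and Ki(app) fitted by tight-binding algorithm.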
For orientation: Fluorescence polarisation rises when a labelled molecule tumbles more slowly, as on binding a larger partner.

In assay [1] the target is intracellular GCN2 (phosphorylation of the GCN2 substrate eIF2α) (Homo sapiens, UniProt Q9P2K8). Kind of assay: GCN2 cellular inhibition assay (AlphaScreen SureFire P-eIF2α Ser51, borrelidin-treated U2OS cells). The format is cell-based. The method in brief: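 Read-out: AlphaScreen SureFire phospho-eIF2α (Ser51) signal in U2OS lysates. Cells get 4-fold compound dilutions (top 40 μM final) plus 10 μM borrelidin, 1 h, 37 °C. Percent inhibition is relative to borrelidin-alone controls.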
intracellular GCN2 (phosphorylation of the GCN2 substrate eIF2α), sequence (Q9P2K8 whole entry): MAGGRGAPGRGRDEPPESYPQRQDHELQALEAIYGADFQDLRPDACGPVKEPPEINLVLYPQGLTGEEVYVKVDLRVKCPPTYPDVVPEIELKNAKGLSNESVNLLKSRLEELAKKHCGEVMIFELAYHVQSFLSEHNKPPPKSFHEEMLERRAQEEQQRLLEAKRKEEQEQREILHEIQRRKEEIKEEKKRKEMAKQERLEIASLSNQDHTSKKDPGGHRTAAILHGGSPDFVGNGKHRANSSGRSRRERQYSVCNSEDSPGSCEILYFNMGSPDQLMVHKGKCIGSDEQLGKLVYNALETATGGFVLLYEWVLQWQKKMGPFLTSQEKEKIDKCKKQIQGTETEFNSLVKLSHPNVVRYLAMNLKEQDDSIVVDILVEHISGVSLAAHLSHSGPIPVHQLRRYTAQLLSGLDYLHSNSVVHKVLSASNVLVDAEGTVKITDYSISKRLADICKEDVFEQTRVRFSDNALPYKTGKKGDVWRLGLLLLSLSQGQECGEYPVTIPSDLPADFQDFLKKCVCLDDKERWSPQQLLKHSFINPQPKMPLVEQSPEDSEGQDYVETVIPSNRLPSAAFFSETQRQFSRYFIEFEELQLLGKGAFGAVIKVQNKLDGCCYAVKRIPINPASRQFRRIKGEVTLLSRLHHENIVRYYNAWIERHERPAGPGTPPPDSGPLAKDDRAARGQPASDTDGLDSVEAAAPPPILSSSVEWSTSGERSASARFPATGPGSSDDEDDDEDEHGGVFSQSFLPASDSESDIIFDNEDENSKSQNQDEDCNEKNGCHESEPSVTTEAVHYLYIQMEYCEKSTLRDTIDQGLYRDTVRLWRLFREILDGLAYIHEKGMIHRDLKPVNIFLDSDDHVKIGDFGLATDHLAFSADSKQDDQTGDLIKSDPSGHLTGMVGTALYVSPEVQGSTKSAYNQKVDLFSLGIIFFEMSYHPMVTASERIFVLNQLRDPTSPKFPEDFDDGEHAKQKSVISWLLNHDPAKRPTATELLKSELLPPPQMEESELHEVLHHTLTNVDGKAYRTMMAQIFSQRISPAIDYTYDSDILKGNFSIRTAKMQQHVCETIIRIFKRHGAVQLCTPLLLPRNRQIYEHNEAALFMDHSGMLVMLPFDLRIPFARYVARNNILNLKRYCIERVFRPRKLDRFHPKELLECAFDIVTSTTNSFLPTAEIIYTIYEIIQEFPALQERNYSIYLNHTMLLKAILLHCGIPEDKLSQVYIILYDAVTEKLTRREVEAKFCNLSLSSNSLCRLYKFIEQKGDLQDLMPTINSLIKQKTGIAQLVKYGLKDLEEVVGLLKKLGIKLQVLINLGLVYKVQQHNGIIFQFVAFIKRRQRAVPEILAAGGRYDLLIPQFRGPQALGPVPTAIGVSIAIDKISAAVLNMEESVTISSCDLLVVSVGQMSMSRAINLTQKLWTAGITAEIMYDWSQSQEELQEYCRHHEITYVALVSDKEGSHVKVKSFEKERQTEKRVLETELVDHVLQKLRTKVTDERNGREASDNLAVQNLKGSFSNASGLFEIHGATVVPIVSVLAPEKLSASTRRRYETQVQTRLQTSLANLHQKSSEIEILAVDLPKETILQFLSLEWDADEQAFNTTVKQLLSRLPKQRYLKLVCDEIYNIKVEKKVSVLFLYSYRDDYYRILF
In general terms: Alpha assays give light when donor and acceptor beads are brought close together.

The mark [2] stands for this setting: Enzyme activity for compounds of Formula IV, Ki(app), 25° C.
Setting [3] is: compounds of Formula IV, biomarker assay, phosphorylated eIF2α Ser51 in borrelidin-treated U2OS cells.
[4] abbreviates: compounds of Formula II, 4 nM GCN2 kinase.
[5] abbreviates: compounds of Formula II, biomarker assay, phosphorylated eIF2α Ser51 in borrelidin-treated U2OS cells.

SMILES strings stand for the structures. pIC50, pKi: −log10 of the molar value. Where two headings read alike, the source gives them in different places. Where only a bound is given, the exact number is not on record here.

GCN2 kinase, sequence (Q9P2K8 whole entry): as above

As usually defined, the pKi is −log10 of the Ki, conventionally taken in molar units. Read a high pKi as a small Ki. For orientation: pIC50 means the IC50 on a negative log10 scale, so that one unit is a factor of ten. For the molecule `NCS(=O)(=O)c1cccc(-c2ccnc(-c3cnc4cnc(C(F)F)cn34)n2)c1` [IV-148, ((3-(2-(6-(Difluoromethyl)imidazo[1,2-a]pyrazin-3-yl)pyrimidin-4-yl)phenyl)sulfonyl)methanamine], the negative-log Ki (pKi) on GCN2 kinase (setting [2]) is 6.00 to 7.00. In addition, the pIC50 in assay [1] (setting [3]) was < 5.30.
As for `CS(=O)(=O)N1CC2(CCCN(c3cc(-c4cnc5ccc(C(F)F)nn45)ccn3)C2)C1` [II-136, 6-(Difluoromethyl)-3-(2-(2-(methylsulfonyl)-2,6-diazaspiro[3.5]nonan-6-yl)pyridin-4-yl)imidazo[1,2-b]pyridazine], the pKi at GCN2 kinase (setting [4]) is > 8.00. The negative-log IC50 (pIC50) in assay [1] (setting [5]) was > 6.30.
The matching figures for `CS(=O)(=O)NC[C@H]1CCCN(c2cc(-c3cnc4ccc(C(F)(F)F)nn34)ncn2)C1` [II-291, (S)—N-((1-(6-(6-(Trifluoromethyl)imidazo[1,2-b]pyridazin-3-yl)pyrimidin-4-yl)piperidin-3-yl)methyl)methanesulfonamide]: > 8.00 and > 6.30.
The matching figures for `CC1CC(F)(F)C(CNS(C)(=O)=O)CN1c1cc(-c2cnc3ccc(C(F)F)nn23)ncn1` (centres unmarked) [II-434, N-((1-(6-(6-(Difluoromethyl)imidazo[1,2-b]pyridazin-3-yl)pyrimidin-4-yl)-4,4-difluoro-6-methylpiperidin-3-yl)methyl)methanesulfonamide]: 6.00 to 8.00 and < 5.30.
The matching figures for `CS(C)(=O)=NC[C@@H]1CN(c2cc(-c3cnc4ccc(C(F)F)nn34)ccn2)CCO1` [II-102, [(2S)-4-[4-[6-(Difluoromethyl)imidazo[1,2-b]pyridazin-3-yl]-2-pyridyl]morpholin-2-yl]methylimino-dimethyl-oxo-sulfane]: 6.00 to 8.00 and < 5.30.
Regarding `CC1CN(c2ccnc(-c3cnc4cnc(Br)cn34)n2)C(C)C(c2cn[nH]c2)N1` (centres unmarked) [IV-279, 6-Bromo-3-(4-(2,5-dimethyl-3-(1H-pyrazol-4-yl)piperazin-1-yl)pyrimidin-2-yl)imidazo[1,2-a]pyrazine], the pKi on GCN2 kinase (setting [2]) was > 8.00. Besides, the negative logarithm of the IC50 (pIC50) in assay [1] (setting [3]) is > 6.30.
At GCN2 kinase (setting [2]), `FC(F)(F)c1cn2c(-c3nccc(N4CCC(c5cn[nH]c5)C4)n3)cnc2cn1` (centres unmarked) [IV-494, 3-(4-(3-(1H-Pyrazol-4-yl)pyrrolidin-1-yl)pyrimidin-2-yl)-6-(trifluoromethyl)imidazo[1,2-a]pyrazine] gave a negative-log Ki (pKi) of 7.00 to 8.00. For the same molecule, the negative-log IC50 (pIC50) in assay [1] (setting [3]) was 5.30 to 6.30.
Taken in the same sequence, the figures for `C[C@@H]1CN(c2ccnc(-c3cnc4cnc(C(F)(F)F)cn34)n2)C[C@@H](c2cn[nH]c2)O1` (racemic) [IV-11, Trans-2-Methyl-6-(1H-pyrazol-4-yl)-4-(2-(6-(trifluoromethyl)imidazo[1,2-a]pyrazin-3-yl)pyrimidin-4-yl)morpholine] were 7.00 to 8.00 and 5.30 to 6.30.
As for `CS(=O)(=O)N[C@@H]1CCCN(c2cc(-c3cnc4ccc(C(F)F)nn34)ncn2)C1` (single isomer, unassigned) [II-405], the pKi on GCN2 kinase (setting [4]) is 6.00 to 8.00. In assay [1] (setting [5]), this molecule gave a pIC50 of 5.30 to 6.30.
Taken in the same sequence, the figures for `CC(NS(C)(=O)=O)C1CN(c2cc(-c3cnc4ccc(C(F)F)nn34)ncn2)CCN1` (centres unmarked) [II-465, N-(1-(4-(6-(6-(Difluoromethyl)imidazo[1,2-b]pyridazin-3-yl)pyrimidin-4-yl)piperazin-2-yl)ethyl)methanesulfonamide] were 6.00 to 8.00 and 5.30 to 6.30.
Consider `NS(=O)(=O)N[C@@H]1CCCN(c2ccnc(-c3cnc4cnc(C(F)F)cn34)n2)C1` [IV-181, 6-(Difluoromethyl)-3-[4-[(3R)-3-(sulfamoylamino)-1-piperidyl]pyrimidin-2-yl]imidazo[1,2-a]pyrazine], for which the negative logarithm of the Ki (pKi) at GCN2 kinase (setting [2]) is 6.00 to 7.00. In assay [1] (setting [3]), the pIC50 is < 5.30.
Taken in the same sequence, the figures for `CC1CN(c2ccnc(-c3cnc4cnc(C(F)(F)F)cn34)n2)CC(c2cn[nH]c2)O1` (single isomer, unassigned) [IV-16, 2-Methyl-6-(1H-pyrazol-4-yl)-4-(2-(6-(trifluoromethyl)imidazo[1,2-a]pyrazin-3-yl)pyrimidin-4-yl)morpholine] were 7.00 to 8.00 and 5.30 to 6.30.
On GCN2 kinase (setting [4]), `CN(CC1CCCN(c2cc(-c3cnc4ccc(C(F)F)nn34)ncn2)C1)S(C)(=O)=O` (centres unmarked) [II-310, N-((1-(6-(6-(Difluoromethyl)imidazo[1,2-b]pyridazin-3-yl)pyrimidin-4-yl)piperidin-3-yl)methyl)-N-methylmethanesulfonamide] showed a pKi of 6.00 to 8.00. The pIC50 in assay [1] (setting [5]) was 5.30 to 6.30.
The matching figures for `CS(=O)(=O)NC[C@H]1CCCN(c2cc(-c3cnc4ccc(C(F)F)nn34)ncn2)C1` [II-300, (S)—N-((1-(6-(6-(Difluoromethyl)imidazo[1,2-b]pyridazin-3-yl)pyrimidin-4-yl)piperidin-3-yl)methyl)methanesulfonamide]: > 8.00 and > 6.30.
The matching figures for `CC1C(CNS(C)(=O)=O)OC(C)(C)CN1c1cc(-c2cnc3ccc(C(F)F)nn23)ncn1` (single isomer, unassigned) [II-484, N-((4-(6-(6-(Difluoromethyl)imidazo[1,2-b]pyridazin-3-yl)pyrimidin-4-yl)-3,6,6-trimethylmorpholin-2-yl)methyl)methanesulfonamide]: 6.00 to 8.00 and 5.30 to 6.30.
Molecule `CC1CCN(c2ccnc(-c3cnc4cnc(C(F)F)cn34)n2)CC1C(N)=O` (centres unmarked) [IV-108, 1-(2-(6-(Difluoromethyl)imidazo[1,2-a]pyrazin-3-yl)pyrimidin-4-yl)-4-methylpiperidine-3-carboxamide] had a negative-log Ki (pKi) on GCN2 kinase (setting [2]) of 7.00 to 8.00. In assay [1] (setting [3]), this molecule had a pIC50 of 5.30 to 6.30.
On to `CC(=O)N1CCN(c2ccnc(-c3cnc4cnc(C(F)F)cn34)n2)CC1` [IV-22, 1-(4-(2-(6-(Difluoromethyl)imidazo[1,2-a]pyrazin-3-yl)pyrimidin-4-yl)piperazin-1-yl)ethan-1-one], for which, at GCN2 kinase (setting [2]), the negative logarithm of the Ki (pKi) is 6.00 to 7.00. For the same molecule, in assay [1] (setting [3]), the pIC50 was < 5.30.
The molecule `NC(=O)C1CN(c2cc(-c3cnc4ccc(C(F)F)nn34)ncn2)CCO1` (centres unmarked) [II-50, 4-(6-(6-(Difluoromethyl)imidazo[1,2-b]pyridazin-3-yl)pyrimidin-4-yl)morpholine-2-carboxamide] had a negative-log Ki (pKi) on GCN2 kinase (setting [4]) of 6.00 to 8.00. In assay [1] (setting [5]), the negative-log IC50 (pIC50) was 5.30 to 6.30.
In turn, `CC1CC(CS(C)(=N)=O)C(C)N(c2ccnc(-c3cnc4sc(C(F)(F)F)cn34)n2)C1` (centres unmarked) [Compound V-16, ((2,5-Dimethyl-1-(2-(2-(trifluoromethyl)imidazo[2,1-b]thiazol-5-yl)pyrimidin-4-yl)piperidin-3-yl)methyl)(imino)(methyl)-λ^6-sulfanone] gave a pKi on GCN2 kinase (compounds of Formula V, 4 nM GCN2 kinase) of 6.00 to 7.00. In addition, in assay [1] (compounds of Formula V, U2OS cells, 10 μM borrelidin, 1 h, read-out: GCN2 Biomarker (IC50)), the negative-log IC50 (pIC50) is < 5.30.
`FC(F)c1ccc2ncc(-c3cc(N4CC5(COC5)C4)ncn3)n2n1` [II-252, 6-(6-(6-(Difluoromethyl)imidazo[1,2-b]pyridazin-3-yl)pyrimidin-4-yl)-2-oxa-6-azaspiro[3.3]heptane] gave a pKi on GCN2 kinase (setting [4]) of 6.00 to 8.00. Further, the pIC50 in assay [1] (setting [5]) was < 5.30.
With `Cc1[nH]ncc1[C@@H]1CN(c2cc(-c3cnc4ccc(C(F)(F)F)nn34)ncn2)C[C@@H](C)O1` [II-766, (2R,6R)-2-methyl-6-(5-methyl-1H-pyrazol-4-yl)-4-(6-(6-(trifluoromethyl)imidazo[1,2-b]pyridazin-3-yl)pyrimidin-4-yl)morpholine], the negative-log IC50 (pIC50) against GCN2 kinase (setting [4]) was 6.00 to 8.00; in assay [1] (setting [5]), < 5.30.
Consider `NC(=O)CCC1CCN(c2cc(-c3cnc4ccc(C(F)F)nn34)ncn2)CC1` [II-212, 3-(1-(6-(6-(Difluoromethyl)imidazo[1,2-b]pyridazin-3-yl)pyrimidin-4-yl)piperidin-4-yl)propanamide], for which, at GCN2 kinase (setting [4]), the pKi was 6.00 to 8.00. This molecule also had a pIC50 in assay [1] (setting [5]) of 5.30 to 6.30.
Taken in the same sequence, the figures for `CC1CN(c2cc(-c3cnc4ccc(C(F)F)nn34)ncn2)CC(CNS(C)(=O)=O)O1` (centres unmarked) [II-33, N-((4-(6-(6-(Difluoromethyl)imidazo[1,2-b]pyridazin-3-yl)pyrimidin-4-yl)-6-methylmorpholin-2-yl)methyl)methanesulfonamide] were > 8.00 and > 6.30.
Regarding `N#Cc1ccc(C(=O)N[C@H]2CCCN(c3ccnc(-c4cnc5cnc(C(F)(F)F)cn45)n3)C2)cc1` [IV-743], at GCN2 kinase (setting [2]), the pKi is < 6.00. The negative logarithm of the IC50 (pIC50) in assay [1] (setting [3]) is < 5.30.
With `C[C@@H]1CO[C@H](CNS(C)(=O)=O)CN1c1cc(-c2cnc3ccc(C(F)F)nn23)ncn1` [II-197, N-(((2S,5R)-4-(6-(6-(Difluoromethyl)imidazo[1,2-b]pyridazin-3-yl)pyrimidin-4-yl)-5-methylmorpholin-2-yl)methyl)methanesulfonamide], at GCN2 kinase (setting [4]), the pKi is > 8.00. Moreover, the pIC50 in assay [1] (setting [5]) is > 6.30.
For `CC1CN(c2cc(-c3cnc4ccc(C(F)F)nn34)ncn2)CC(CNS(C)(=O)=O)N1` (centres unmarked) [II-411], on GCN2 kinase (setting [4]), the negative logarithm of the Ki (pKi) was 6.00 to 8.00. Moreover, in assay [1] (setting [5]), the negative-log IC50 (pIC50) is 5.30 to 6.30.
The matching figures for `O=C1CCN(c2cc(-c3cnc4ccc(Cl)nn34)ccn2)CCN1` [II-187, 1-(4-(6-Chloroimidazo[1,2-b]pyridazin-3-yl)pyridin-2-yl)-1,4-diazepan-5-one]: 6.00 to 8.00 and < 5.30.
The matching figures for `CC1(O)CCN(c2cc(-c3cnc4ccc(C(F)F)nn34)ncn2)CC1CNS(C)(=O)=O` (centres unmarked) [II-239, N-((1-(6-(6-(Difluoromethyl)imidazo[1,2-b]pyridazin-3-yl)pyrimidin-4-yl)-4-hydroxy-4-methylpiperidin-3-yl)methyl)methanesulfonamide]: > 8.00 and 5.30 to 6.30.
